# Data: patent publication US4898887A, “Compounds and compositions having anti-inflammatory and analgesic activity” (The Procter & Gamble Company, priority 1986, dated 1990)
# Where two headings read alike, the source gives them in different places.
# Experiments:
# [1] = test system: analgesia and inflammation; experiment: intramuscular administration to human: analgesia and inflammation; assay type: in vivo; conditions: Example III, ethyl oleate/benzyl alcohol, 1.5 ml in 65 kg human
# Procedure: The octadecatrienamide is dissolved in the solution combining ethyl oleate and benzyl alcohol, sealed into airtight 5 ml ampoules, and sterilized by autoclaving.
# A composition for parenteral administration of N-vanillyl-5Z,8Z,11Z,14Z-eicosatetraenamide is prepared by a substantially similar method.
# [2] = test system: analgesia and inflammation; experiment: oral administration to human: analgesia and inflammation; assay type: in vivo
# Procedure: A composition for oral administration of N-vanillyl-5Z,8Z,11Z,14Z-eicosatetraenamide is prepared by a substantially similar method.
# [3] = test system: analgesia and inflammation; experiment: topical administration to human: analgesia and inflammation; assay type: in vivo; conditions: Example VI, 0.4 ml to 80 cm^2 of forearm of 60 kg human
# Procedure: The octadecatrienamide is melted to a liquid with slight warming and combined with the other ingredients.
# A composition for topical application of N-vanillyl-5Z,8Z,11Z,14Z-eicosatetraenamide is prepared by a substantially similar method.
# [4] = test system: phenylbenzoquinone-induced writhing; experiment: phenylquinone writhing assay; assay type: in vivo, mouse (male mice); conditions: oral gavage 3 h before i.p. 0.2% phenylbenzoquinone; 10 minute period; vehicle control 17.4 ± 1.7
# Procedure: Three trienamide composition were tested for analgesic and anti-inflammatory activity using the phenylquinone writhing assay.
# Groups of eight male mice weighing between approximately 25 and 30 g were dosed orally by gavage with the composition to be tested. Identical groups of mice were dosed with control compositions. Three hours after this initial administration, the mice were injected intraperitoneally with a 0.2% solution of phenylbenzoquinone in aqueous ethanol. The ability of the analgesic compositions tested to relieve the discomfort induced was measured by counting the number of abdominal contractions, or "writhes", occurring in each mouse during a 10 minute period beginning 10 minutes after injection of the phenylbenzoquinone solution.
# [5] = test system: croton oil-induced mouse ear inflammation; experiment: croton oil-induced mouse ear inflammation test; assay type: in vivo, mouse (adult male Cox ICR mice); conditions: 25 μl of 1% ethanolic solution on left ear, 20-28 h and 5-6 h prior to sacrifice; 2% croton oil 4 h prior to sacrifice
# Procedure: Two trienamide compositions were tested for anti-inflammatory activity using the croton oil-induced mouse ear inflammation test.
# Adult male Cox ICR mice, 20-30 g, were treated on the left ear at 20-28 hours prior to sacrifice and a second time 5-6 hours prior to sacrifice with 25 μl of a 1% ethanolic solution of the test compound. Four hours prior to sacrifice both ears were treated with 25 μl of a 2% solution of croton oil in acetone. Each animal was then placed in individual cages and given food and water ad lib. Animals were sacrificed by cervical dislocation and both ears removed. From these ears, 0.38 cm^2 punch biopsies were taken from the central portion and each biopsy weighed on a Cahn electrobalance.
# For each test substance, a group of 10 animals was used. Control groups either had both ears treated with croton oil or just the right ear. It was experimentally determined that a value of 11.0 mg could be assumed for a punch biopsy from a normal untreated ear and still be within the experimental error of the test. Therefore, for the calculation of percent inhibition, a value of 11.0 mg was used. [formula]
# This calculation is valid only when no systemic effects are noted as evidenced by comparison of right ears of treated and control groups.
# Statistical signifance at the 95% confidence level was determined by the paired test.
# [6] = test system: threshold for the perception of pain (hot plate, 55° C.); experiment: Rodent Hot Plate Test (rats, VL)
# [7] = test system: analgesia and inflammation; experiment: analgesic and anti-inflammatory activity (general statement); assay type: in vivo
# [8] = toxicity and narcotic side effects (general statement); assay type: in vivo
# [9] = test system: threshold for the perception of pain (hot plate, 55° C.); conditions: unless administered in toxic quantities; cited from earlier work
# [10] = test system: analgesia and inflammation; conditions: background, literature on capsaicin; cited from earlier work
# [11] = Example IV, sesame oil soft gelatin capsules, two capsules of 225 mg in 60 kg human
# [12] = Example V, syrup, one teaspoon in 70 kg adult human
structure (smiles),measurement,setting,value
"CCCCC/C=C\C/C=C\C/C=C\C/C=C\CCCC(=O)NCc1ccc(O)c(OC)c1 [N-vanillyl-5Z,8Z,11Z,14Z-eicosatetraenamide]",analgesia,[1],produces analgesia
same,reduction of inflammation,[1],reduces inflammation
same,analgesia,[2]; [11],produces analgesia
same,reduction of inflammation,[2]; [11],reduces inflammation
same,analgesia,[2]; [12],produces analgesia
same,reduction of inflammation,[2]; [12],reduces inflammation
same,analgesia,[3],produces analgesia
same,reduction of inflammation,[3],reduces inflammation
"CCCCC/C=C\C/C=C\C/C=C\CCCCC(=O)NCc1ccc(O)c(OC)c1 [N-vanillyl-6Z,9Z,12Z-octadecatrienamide]",reduction of inflammation,[1],substantially similar reduction of inflammation
same,Writhes/10 minutes,[4],0.0 ± 0.0 Writhes/10 minutes
same,reduction of inflammation,[2]; [11],substantially similar reduction of inflammation
same,reduction of inflammation,[2]; [12],substantially similar reduction of inflammation
same,reduction of inflammation,[3],substantially similar reduction of inflammation
same,% Inhibition,[5],100.7 ± 11.9%
"CC/C=C\C/C=C\C/C=C\CCCCCCCC(=O)NCc1ccc(O)c(OC)c1 [N-vanillyl-9Z,12Z,15Z-octadecatrienamide]",analgesia,[1],produces analgesia
same,reduction of inflammation,[1],reduces inflammation
same,Writhes/10 minutes,[4],0.4 ± 0.3 Writhes/10 minutes
same,% Animals Analgesic,"[6]; Example X, 20 mg/kg oral in sesame oil, 1 hr post-dose, vehicle 0",70%
same,% Animals Analgesic,"[6]; Example X, 20 mg/kg oral in sesame oil, 2 hrs post-dose, vehicle 20",30%
same,% Animals Analgesic,"[6]; Example X, 20 mg/kg oral in sesame oil, 3 hrs post-dose, vehicle 0",10%
same,% Animals Analgesic,"[6]; Experiment A, 200 mg/kg oral in propylene glycol, 1 hr post-dose, vehicle 20",80%
same,% Animals Analgesic,"[6]; Experiment A, 200 mg/kg oral in propylene glycol, 2 hrs post-dose, vehicle 10",40%
same,% Animals Analgesic,"[6]; Experiment A, 200 mg/kg oral in propylene glycol, 3 hrs post-dose, vehicle 0",30%
same,% Animals Analgesic,"[6]; Experiment B, 200 mg/kg oral in propylene glycol, 1 hr post-dose, vehicle 0",50%
same,% Animals Analgesic,"[6]; Experiment B, 200 mg/kg oral in propylene glycol, 2 hrs post-dose, vehicle 20",60%
same,% Animals Analgesic,"[6]; Experiment B, 200 mg/kg oral in propylene glycol, 3 hrs post-dose, vehicle 0",20%
same,% Animals Analgesic,"[6]; Experiment C, 288 mg/kg oral in propylene glycol, 1 hr post-dose, vehicle 10",50%
same,% Animals Analgesic,"[6]; Experiment C, 288 mg/kg oral in propylene glycol, 2 hrs post-dose, vehicle 0",10%
same,% Animals Analgesic,"[6]; Experiment C, 288 mg/kg oral in propylene glycol, 3 hrs post-dose, vehicle 0",0%
same,analgesia,[2]; [11],producing analgesia
same,reduction of inflammation,[2]; [11],reducing inflammation
same,analgesia,[2]; [12],producing analgesia
same,reduction of inflammation,[2]; [12],reducing inflammation
same,analgesia,[3],produces analgesia
same,reduction of inflammation,[3],reduces inflammation
same,% Inhibition,[5],78.5 ± 31.9%
"CC/C=C\C/C=C\C/C=C\CCCCCCCCCC(=O)NCc1ccc(O)c(OC)c1 [N-vanillyl-11Z,14Z,17Z-eicosatrienamide]",reduction of inflammation,[1],substantially similar reduction of inflammation
same,Writhes/10 minutes,[4],0.4 ± 0.3 Writhes/10 minutes
same,analgesic activity / potency compared with aspirin and opioids,[7],analgesic activity comparable to that of the opioids
same,"undesirable narcotic side effects (tolerance, physical dependence)",[8],does not exhibit undesirable narcotic side effects
same,reduction of inflammation,[2]; [11],substantially similar reduction of inflammation
same,reduction of inflammation,[2]; [12],substantially similar reduction of inflammation
same,reduction of inflammation,[3],substantially similar reduction of inflammation
CC(=O)Nc1ccc(O)cc1 [acetaminophen],activity in the RHP system,[9],little or no activity
CC(=O)Oc1ccccc1C(=O)O [aspirin],activity in the RHP system,[9],little or no activity
"COc1cc(CNC(=O)CCCCC=CC(C)C)ccc1O [capsaicin, 8-methyl-N-vanillyl-6-nonenamide]",analgesia,[10],induces analgesia
